Test results from PMC7321210, “Synthesis and Studies of the Inhibitory Effect of Hydroxylated Phenylpropanoids and Biphenols Derivatives on Tyrosinase and Laccase Enzymes” (Molecules, 2020).
“Also recorded” adds a separate entry of the source. Read-outs that look alike come from different tables or passages of the source.

Key:
[1] = test system: Tenebrio molitor; test: Insecticidal properties on mealworm larvae; type: in vivo; details: for pest or weed control at 6400 µg/mL: Tenebrio molitor, topical, 120 h, read-out: Mortality% (Mean ± SD)
Method: Late instar larvae of Tenebrio molitor from a twenty-year-old insect culture at the Research Institute on Terrestrial Ecosystems (National Research Council, Sassari, Italy) were used in the experiments. The species was reared on bran flour, with the integration of fresh vegetables, at 25 °C, 65% relative humidity and 16:8 hours light/darkness.
One hundred medium instar larvae were isolated in a petri dishes (diam. 50 mm). They were then immersed for three seconds in 2.5 mL of an acetone solution (concentration 6.4 mg/mL w:v) of one of the fourteen compounds listed in Table 3. In addition, a treatment with the commercial formulation Dimilin (WP, 25% a.i. diflubenzuron) (acetone solution, 25.6 mg/mL w:v) and a negative control (no treatment) were tested.
After treatment, the larvae were subdivided into five 20-specimen groups and reared for five days in a small PVC box (150 L × 120 W × 50 H mm) with the same feed and conditions as standard rearing. Mortality was recorded daily.
The statistical analysis was conducted with the R software (R Development Core Team 2016). Mortality data, expressed as a percentage, were arcsin(√x)-transformed to satisfy assumptions of normality. ANOVA was performed by the Duncan test for mean separation.

[2] = target: T1, tyrosinase (Agaricus bisporus, UniProt C7FF04); details: cited from earlier work; for tyrosinase inhibitory activity compared with biphenol 1: spectrophotometric and electrochemical assays
[3] = test system: mushroom tyrosinase; test: Spectrophotometric (UV-Vis) detection of tyrosinase inhibitory activity; type: biochemical; details: for tyrosinase inhibition in words, tyrosine versus dopamine as substrate: UV-Vis, absorbance at 311 or 472 nm, Figure 3
Method: Kinetic assays were carried out by measuring the appearance of the product of either tyrosine or dopamine oxidation in the reaction medium at 311 and 472 nm, respectively, in a Shimadzu UV-2501 spectrophotometer (Shimadzu, Kyoto, Japan) equipped with the UV-Probe software, using a tandem quartz cuvette (Hellma, Milan, Italy) with a 2 × 4.375-mm path length [1, 2, 51]. Briefly, one side of the dual chamber cuvette was filled with 1000 µl of mushroom tyrosinase solution in 50 mM phosphate buffer, pH 6.8, 166 Units/mL using tyrosine as substrate or a 16.6 Units/mL when dopamine was used as substrate. The other chamber was loaded with 980 µL of substrate solution (180 µM tyrosine or 18 µM dopamine) in 20 mM phosphate buffer (pH 6.8) added of either 20 µL of DMSO (control) or 20 µL of a 2 mM (0.2 mM in dopamine experiments) solution of tested inhibitors in DMSO. A background spectrum in the 250–700 nm range was acquired with a 2.0 nm slit and fast speed before starting the reaction. Thereafter, the solutions in the two chambers were mixed by inversion and the UV-Vis spectra were acquired at increasing time intervals. Spectra were recorded at 311 or 472 nm in the presence of the inhibitor before mixing, and after either 24 or 10 min, using tyrosine or dopamine as a substrate, respectively. Data processing was performed with UV Probe and OriginPro 2019 (v. 9.60) softwares.
The mushroom tyrosinase was used as purchased without further purification. All solutions (tyrosinase, substrates and inhibitors) were filtered through a 0.45-μm syringe filter, aliquoted in Eppendorf tubes, and stored in freezer. The relative concentration was determined spectrophotometrically (εtyrosine 274.6 nm = 1420 M^−1·cm^−1; εdopamine at 280 nm = 2670 M^−1·cm^−1; εtyrosinase at 280 nm = 1426 M^−1·cm^−1).
Tyrosine was dissolved in 50 mM phosphate buffer, pH 6.8, final concentration 80 µM and with the added inhibitor (final concentration 20 µM) and tyrosinase (83 U/mL). The absorbance values were determined after 24 min of incubation. In the presence of dopamine, experiments were performed using 10-fold diluted solutions, and the absorbance values were determined after 10 min of incubation.

[4] = test system: laccase; test: Laccase amperometric biosensor: IC50 and type of inhibition; type: biochemical; details: for VMAX, substrate + inhibitor, LAC: dopamine calibration 0-140 mM after inhibitor exposure, n=4 biosensors; for IC50: enzyme immobilized on biosensor, dopamine 50 µM, PBS pH 6.0; for Type of Inhibition Laccase: Lineweaver-Burk plot, biosensor exposed 30 min to twice the lowest inhibiting concentration
Method: (§1) Inhibition types and IC50 were assessed by means of carbon-based amperometric biosensors [61, 62, 63, 64, 65], that are described in the Supplementary Materials. During the experiments carried out to determine the IC50 values, the lowest inhibitory concentration of each compound was also evaluated.
(§2) To verify the inhibition types, the following protocol was used. An initial calibration with dopamine, ranging between 0 and 140 mM, was performed in order to ascertain the values of VMAX and KM. Another calibration with the same protocol was performed after having exposed the biosensors to twice the lowest inhibiting concentration of each inhibitor, in order to ensure the safe inhibition of enzymatic activity. The biosensors were exposed to the inhibitor for 30 min and after having reached a stabile baseline, a calibration with dopamine, ranging between 0 and 140 mM, was performed and the value of VMAX and KM were calculated. The variations of both VMAX and KM were then analyzed by using the Lineweaver-Burk plot in order to identify the type of inhibition induced by the tested compound. The statistical difference in VMAX and KM, before exposing the biosensors to the inhibitor and then afterwards, was calculated by means of a paired t-test (p < 0.05).
(§3) The biosensors were prepared starting from a Teflon™-insulated silver wire (30 mm in length; Ø = 125 μm),
(§4) Briefly, 1 mm of the silver wire was exposed and then introduced into a silica
(§5) capillary cylinder (10 mm in length; I.D. Ø = 180 μm, Polymicro Technologies, Phoenix, AZ, USA) partly
(§6) packed with graphite-loaded (55% w/w) epoxy resin. By mixing 850 mg of graphite with 500 mg of Araldite-
(§7) M and 200 mg of hardener, a preliminary disc electrode of carbon-composite was fabricated (Ø = 180 μm; area:
(§8) 2.5 × 10−4 cm2) by filling the silica capillary tubing with the mixture. The silver wire assured a good electrical
(§9) contact. After 24 h at 40 °C, the electrode surface was cleaned using a high-speed drill (Dremel® 300) equipped
(§10) with an aluminum oxide grinding wheel. On top of the electrode surface a 1 µl of Tyrosinase or Laccase
(§11) solution was deposited. After the complete evaporation of water at room temperature, the biosensor was
(§12) quickly dipped in the polyurethane solution in order to entrap the enzyme on the electrode surface, and after
(§13) the complete evaporation of the solvent biosensors were put to stabilize in PBS pH=6.0 overnight.
(§14) The electrochemical measurements were performed at room temperature in a classical three-electrode
(§15) electrochemical cell consisting of four biosensors as working electrodes, a reference electrode (Ag/AgCl in
(§16) Constant potential amperometry (CPA) was used for in-vitro calibrations and for inhibition evaluation
(§17) experiments by applying a constant potential of -50 mV against an Ag/AgCl reference electrode, by means of
(§18) a four-channel potentiostat (eDAQ Quadstat, e- Corder 410, eDAQ Europe, Poland) and the software Chart (v
(§19) 5.5, eDAQ Europe, Poland). Thus, once the stabilization of the baseline of biosensors was reached, increasing
(§20) volumes of a stock solution of dopamine 1 M were added in order to obtain different concentrations ranging

[5] = test system: PC12 cells; test: Protection of PC12 cells against H2O2-induced oxidative stress (MTT); type: cell-based, rat; details: for change of cell viability versus H2O2 alone, in words: co-treatment with 100 μM H2O2, compounds 1 up to 20 μM; for H2O2 Damage Protection: concentration with significant increase in viability vs H2O2, co-treatment with 100 μM H2O2, n.p.: no protection
Method: (§21) 1.4 Viability and oxidative stress assays
(§22) PC12 cells, rat pheochromocytoma-derived cell line (ATCCCRL-1721) (passages 12–25) were maintained at 37
(§23) °C humidified air containing 5% CO2/95% atmospheric air and cultured in a 60 mm plastic culture plates with
(§24) Dulbecco’s modified Eagle’s medium supplemented with 10% horse serum, 5% fetal bovine serum and 1% of
(§25) penicillin/streptomycin. PC12 cells were treated for 24 h with the different compounds at different
concentrations ranging from 1 to 40 μM, to evaluate their eventual toxicity. Then, in order to assess the
eventual compounds’ protection properties, PC12 cell treated with hydrogen peroxide (100μM) in association
with increasing concentration of the above-mentioned molecules, from 1 up to 20 μM.
(§26) For all treatments cell viability was measured by means of MTT assay, as explained in
(§27) At the end of the exposure time of each experiment, the cell viability was assessed by means of MTT (3-(4,5-
(§28) dimethyl-thiazol-2-yl)-2,5-diphenyltetrazoliumbromide) assay. For this purpose, 1 mg/mL of MTT was added
(§29) to each sample and incubated for 4 h at 37 °C. Only viable cells are able to convert the soluble dye MTT into
(§30) the insoluble formazan crystals. After the incubation the MTT supernatant solution was removed, the cells
(§31) were washed in phosphate-buffered saline (PBS) and centrifuged while the pellet was dissolved in 2 mL of
(§32) isopropanol. After centrifugation of the solution at 4,000 rpm for 5 min, the absorbance for each sample was
(§33) assessed by means of a Bauty Diagnostic Microplate Reader at 578 nm. All experiments were performed in 24-
(§34) well plates (1 × 10^5 cells/mL/well) and repeated in triplicate.

[6] = test system: PC12 cells; test: Viability of PC12 cells (MTT assay); type: cell-based, rat; details: for Toxic Concentration: cell viability < 80%, screening from 1 to 40 μM, 24 h; for toxicity to cells in words: significant (p < 0.05) decrease in viability vs control, from 5 μM up to 40 μM
Method: Initially, the inhibitor concentrations on PC12 cells, i.e., a rat pheochromocytoma-derived cell line, were screened to assess the possible cytotoxicity of the molecules under study [55].
as §21, §22, §23, §24, §25
concentrations ranging from 1 to 40 μM, to evaluate their eventual toxicity.
as §26
the following paragraph [17].
as §27, §28, §29, §30, §31, §32, §33, §34

[7] = target: T1, tyrosinase; test: Tyrosinase amperometric biosensor: IC50 and type of inhibition; type: biochemical; details: for Type of Inhibition Tyrosinase: Lineweaver-Burk plot, biosensor exposed 30 min to twice the lowest inhibiting concentration; for VMAX, substrate + inhibitor, TYR: dopamine calibration 0-140 mM after inhibitor exposure, n=4 biosensors;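 for all read-outs here: Carbon-composite amperometric tyrosinase biosensors with polyurethane-entrapped enzyme, calibrated in a three-electrode cell against Ag/AgCl at room temperature, before versus after inhibitor exposure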
Method: as §1, §2, §3, §4, §5, §6, §7, §8, §9, §10, §11, §12, §13, §14, §15, §16, §17, §18, §19, §20

[8] = larvae immersed three seconds in 2.5 mL acetone solution 6.4 mg/mL, reared five days, DFB as Dimilin WP 25% a.i., 25.6 mg/mL

T1 sequence (C7FF04 2-392): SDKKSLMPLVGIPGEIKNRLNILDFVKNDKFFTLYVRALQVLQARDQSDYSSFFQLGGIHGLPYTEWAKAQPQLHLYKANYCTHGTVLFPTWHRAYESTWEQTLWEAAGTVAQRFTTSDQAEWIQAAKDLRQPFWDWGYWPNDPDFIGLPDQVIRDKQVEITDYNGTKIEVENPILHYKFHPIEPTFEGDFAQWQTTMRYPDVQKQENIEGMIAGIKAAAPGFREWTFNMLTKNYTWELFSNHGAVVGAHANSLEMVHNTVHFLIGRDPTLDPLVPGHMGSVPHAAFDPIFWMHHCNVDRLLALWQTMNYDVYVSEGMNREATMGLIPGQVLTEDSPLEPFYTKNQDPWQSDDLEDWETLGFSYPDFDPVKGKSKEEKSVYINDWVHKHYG

| VMAX, substrate + inhibitor, LAC [4] [nA] | IC50 [4] [nM] | VMAX, substrate + inhibitor, TYR [7] [nA] | Compound | pest or weed control at 6400 µg/mL [1, 8] [%] | tyrosinase inhibition in words, tyrosine versus dopamine as substrate [3] | Toxic Concentration [6] | Type of Inhibition Laccase [4] | Type of Inhibition Tyrosinase [7] | also measured |
| --- | --- | --- | --- | --- | --- | --- | --- | --- | --- |
| 91.0±9.2 | 62 | 33.0±1.1 | COc1cc(/C=C/C(=O)c2ccc(OC)c(OC)c2)ccc1O [Compound 11] | 4 ± 2.24 | predominant inhibition of tyrosine oxidation | >10 µM | mixed | competitive | toxicity to cells in words [6]: toxic to cells |
| 49.5±6.1 | 1040 | 63.0±1.962 | COc1cc(C(=O)/C=C/c2ccc(OC)c(OC)c2)ccc1O [Compound 12] | 0 | predominant inhibition of tyrosine oxidation | >1 µM | competitive | noncompetitive | toxicity to cells in words [6]: toxic to cells |
| 110.9±2.4 |  | 48.8±4.67 | COc1cc(/C=C/C(=O)c2cc(OC)c(OC)c(-c3cc(C(=O)/C=C/c4ccc(O)c(OC)c4)cc(OC)c3OC)c2)ccc1O [Compound 14] | 0 | predominant inhibition of tyrosine oxidation | >5 µM | mixed | mixed | toxicity to cells in words [6]: toxic to cells |
| 93.8±2.9 | 209 | 54.3±2.6 | COc1cc(C(=O)/C=C/c2cc(OC)c(OC)c(-c3cc(/C=C/C(=O)c4ccc(O)c(OC)c4)cc(OC)c3OC)c2)ccc1O [Compound 15] | 0 | predominant inhibition of tyrosine oxidation | >5 µM | competitively; also recorded: competitive | competitively; also recorded: competitive | toxicity to cells in words [6]: toxic to cells |
| 139.9±6.4 | 987 | 22.2±0.6 | COc1ccc(O)c(C(=O)/C=C/c2cc(OC)c(OC)c(-c3cc(/C=C/C(=O)c4cc(OC)ccc4O)cc(OC)c3OC)c2)c1 [Compound 16] |  |  | >5 µM | competitively; also recorded: competitive | competitively; also recorded: competitive | % inhibition of tyrosinase ([3]; comparable with both substrates, tyrosine 80 µM, inhibitor 20 µM, 24 min, dopamine 10-fold diluted solutions, 10 min): about 70%; toxicity to cells in words [6]: toxic to cells |
| 96.5±8.3 | 184 | 73.7±26 | CCOC(=O)/C=C/c1cc(OC)c(O)c(-c2cc(/C=C/C(=O)OCC)cc(OC)c2O)c1 [Compound 17] |  | strongly inhibited the oxidation of dopamine compared to that of tyrosine; also recorded: selectivity towards the diphenolasic phase | none | competitive | uncompetitive or mixed; also recorded: mixed | H2O2 Damage Protection [5]: n.p. |

More lines, now with the values behind:

| Compound | VMAX, substrate + inhibitor, LAC [4] [nA] | IC50 [4] [nM] | VMAX, substrate + inhibitor, TYR [7] [nA] | pest or weed control at 6400 µg/mL [1, 8] [%] | tyrosinase inhibition in words, tyrosine versus dopamine as substrate [3] | Toxic Concentration [6] | Type of Inhibition Laccase [4] | Type of Inhibition Tyrosinase [7] | also measured |
| --- | --- | --- | --- | --- | --- | --- | --- | --- | --- |
| Oc1ccc(-c2ccc(O)cc2)cc1 [Compound 1, 4,4′-dihydroxy-biphenyl, reference compound] |  |  |  | 2 ± 2.74 | predominant inhibition of tyrosine oxidation |  |  |  | type of tyrosinase inhibition [2]: classical reversible competitive inhibitor |
| Oc1ccc(-c2ccc(O)c(O)c2)cc1O [Compound 2] |  |  |  | 4 ± 5.48 |  |  |  |  | tyrosinase inhibitory activity compared with biphenol 1 [2]: higher tyrosinase inhibitory activity than that of biphenol 1 |
| C=CCc1cc(-c2ccc(O)c(CC=C)c2)ccc1O [Compound 3] |  |  |  | 3 ± 2.74 |  |  |  |  | tyrosinase inhibitory activity compared with biphenol 1 [2]: higher tyrosinase inhibitory activity than that of biphenol 1 |
| Oc1ccccc1-c1ccccc1O [Compound 4] |  |  |  |  |  |  |  |  | pest or weed control at 6400 µg/mL [1]: 3 ± 4.47% |
| Oc1cccc(O)c1-c1c(O)cccc1O [Compound 5] |  |  |  | 16 ± 9.62 |  |  |  |  | tyrosinase inhibitory activity compared with biphenol 1 [2]: higher tyrosinase inhibitory activity than that of biphenol 1 |
| COc1cc(O)cc(-c2cc(O)cc(OC)c2OC)c1OC [Compound 6] |  |  |  | 1 ± 2.24 |  |  |  |  | tyrosinase inhibitory activity compared with biphenol 1 [2]: higher tyrosinase inhibitory activity than that of biphenol 1 |
| COc1cc(C=CC(C)=O)ccc1O [Compound 8] | 78.7±8.8 | 218 |  | 10 ± 7.07 | strongly inhibited the oxidation of dopamine compared to that of tyrosine; also recorded: selectivity towards the diphenolasic phase | 40 µM |  |  | change of cell viability versus H2O2 alone, in words [5]: significant decrease (p < 0.05 vs H2O2) in cells viability at all concentrations tested; H2O2 Damage Protection [5]: n.p. |
| CC(=O)CCc1ccc(O)c(O)c1 [Compound 9] | 90.5±7.4 | 2240 | 183.2±11.1 | 4 ± 6.51 | strongly inhibited the oxidation of dopamine compared to that of tyrosine; also recorded: selectivity towards the diphenolasic phase | >10 µM | competitively; also recorded: competitive | competitively; also recorded: competitive | change of cell viability versus H2O2 alone, in words [5]: significant decrease (p < 0.05 vs H2O2) at a concentration of 20 μM; H2O2 Damage Protection [5]: n.p. |
| COc1cc(/C=C/C(=O)C[C@@H]2O[C@H](CO)[C@@H](O)[C@H](O)[C@H]2O)ccc1O [Compound 13] | 114.4±9.5 |  | 37.3 ±4.0 |  | predominant inhibition of tyrosine oxidation | >20 µM | competitive | uncompetitive or mixed; also recorded: uncompetitive | change of cell viability versus H2O2 alone, in words [5]: significant decrease (p < 0.05 vs H2O2) at a concentration of 20 μM; H2O2 Damage Protection [5]: n.p. |
| OC[C@H]1O[C@@H](Oc2ccc(-c3ccc(O)cc3)cc2)[C@H](O)[C@@H](O)[C@@H]1O [Compound 18, (2S,3R,4S,5S,6R)-2-((4’-hydroxy-[1,1’-biphenyl]-4-yl)oxy)-6-(hydroxymethyl)tetrahydro-2H-pyran-3,4,5-triol] | 98.1±3.3 | 2620 | 145.8±17.8 |  | predominant inhibition of tyrosine oxidation | none | competitively; also recorded: competitive | competitively; also recorded: competitive | change of cell viability versus H2O2 alone, in words [5]: significant decrease (p < 0.05 vs H2O2) in cells viability at all concentrations tested; H2O2 Damage Protection [5]: n.p.; melting point: 260 to 262 °C |
| CC(C)=CCCC(C)(O)/C=C/c1cc(-c2ccc(O)c(/C=C/C(C)(O)CCC=C(C)C)c2)ccc1O (centres unmarked) [Compound 20, 3,3’-bis((E)-3-hydroxy-3,7-dimethylocta-1,6-dien-1-yl)-[1,1’-biphenyl]-4,4’-diol] | 151.6±12.1 | 118 | 77.4±4.3 | ~65 | strongly inhibited the oxidation of dopamine compared to that of tyrosine; also recorded: selectivity towards the diphenolasic phase |  | competitively; also recorded: competitive | competitively; also recorded: competitive | insecticidal activity in words ([1]; mealworm larvae, compared with DFB): some insecticidal activity |
| O=C(NC(=O)c1c(F)cccc1F)Nc1ccc(Cl)cc1 [DFB, N-[(4-chlorophenyl)carbamoyl]-2,6-difluorobenzamide, reference compound] |  |  |  |  |  |  |  |  | pest or weed control at 6400 µg/mL [1]: 97 ± 4.47% |
